# From US12612389B2, “Benzofuran-based N-acylhydrazone derivative and pharmaceutical composition comprising same” (KOREA RESEARCH INSTITUTE OF BIOSCIENCE AND BIOTECHNOLOGY, priority 2019, dated 2026)
# Read-outs that look alike come from different tables or passages of the source.
# Assays:
# [1] = Pharmacokinetic (PK) test; assay type: in vivo, male ICR mice; conditions: for F, Mean: Oral 20 mg/kg vs intravenous 5 mg/kg, calculated using AUClast; for CL, Mean / Vd / AUC(0-inf) / AUC(0-t) / clearance / MRT inf / half-life / Cmax / Tmax: mice, n=3; for Vd / AUC(0-inf) / AUC(0-t) / clearance / MRT inf / half-life / Cmax / Tmax: male, ICR, mouse, plasma; for Vd: iv; for AUC(0-inf): read-out: AUCinf, Mean; for AUC(0-t): read-out: AUClast, Mean; for clearance: read-out: CL, Mean (converted); for MRT inf: read-out: MRTinf, Mean; for half-life: read-out: t1/2, Mean (converted)
# Method: Pharmacokinetic (PK) parameters of the Example compounds according to the present invention were determined using male ICR mice as follows (n=3).
# Pharmacokinetic (PK) parameters were measured by non-compartmental analysis of plasma concentration-time curves using Kinetica™ 4.4.1 (Thermo Fisher Scientific, USA). Results thereof are shown in Table below and FIGS. 5A to 5C. In Table below, “F” parameter was calculated using AUClast, “N/A” indicates the phrase not applicable, and “NC” indicates the phrase not calculated.
# [2] = Metabolic stability test in liver microsomes; assay type: in vitro ADME; conditions: 0.5 mg protein/mL, 37° C.
# Method: (§1) The test compounds at a concentration of […] were administered in the presence or absence of NADPH (1 mM) to liver […] (0.5 mg protein/mL) of humans, rats and mice, and metabolic stability was tested at 37° C. for 30 minutes. In addition, buspirone was used as a positive control. Results thereof are shown in Table below and FIGS. 4A to 4E.
# Stability test in plasma [3] = assay type: in vitro ADME; parameters: Residue % (180 minutes elapsed), Mean: dose or concentration left out as unconfirmed; conditions: 37° C.
# Method: In order to test the stability (in vivo) of the Example compounds according to the present invention, the compounds of Examples 2, 3, 4, 8 and 15 were administered intravenously, and plasma concentrations over time were observed. In addition, procaine was used as a positive control. Plasma stability was measured three times by administering the test compound at a concentration […] to human, rat, or mouse plasma (90 μL) at 37° C. Results thereof are shown in Table below and FIGS. 3A to 3E.
# HeLa cells = assay: Anti-proliferative activity test in HeLa cell line (MTT); assay type: cell-based; conditions: Homo sapiens, 48 h, grown for 2 days, mean of 2
# Method: HeLa cells (American Type Culture Collection: ATCC, USA), a human cervical cancer cell line, were seeded in a 96-well plate at 3×10^3 cells/well, and the cells were then treated with compounds of Examples or Comparative Example according to the present invention and grown for 2 days. Then, MTT (3-(4,5-dimethylthiazol-2-yl)-2,5-diphenyltetrazolium bromide) reagent was added at 10 μL/well. After 2 hours, absorbance was measured at “OD 450” and statistical values were obtained using Prism™6 program. The data shown in Table below are mean values of results obtained by repeating the analysis twice.
# Stability test in plasma [4] = assay type: in vitro ADME; conditions: Rat plasma, 37° C.; for Residue % (180 minutes elapsed), Mean: 5 mM
# Method: In order to test the stability (in vivo) of the Example compounds according to the present invention, the compounds of Examples 2, 3, 4, 8 and 15 were administered intravenously, and plasma concentrations over time were observed. In addition, procaine was used as a positive control. Plasma stability was measured three times by administering the test compound at a concentration of 5 mM to human, rat, or mouse plasma (90 μL) at 37° C. Results thereof are shown in Table below and FIGS. 3A to 3E.
# HeLa CCL2 tumor = assay: Anticancer effect test in human cervical cancer cell (HeLa CCL2) transplantation model; assay type: in vivo, BALB/C female nude mouse; conditions: 25 mg/kg intraperitoneally, p<0.001; for tumor growth inhibition: 0-28 days, Day 28, tumor size; for reduction in tumor weight compared with solvent control: excised tumor
# Method: After thawing the human […] cancer cell line HeLa CCL2 that was stored frozen in liquid nitrogen, cell culture was performed. The cells were cultured for an appropriate period in a CO2 incubator (Forma, USA) at a temperature of 37° C. and a CO2 concentration of 5%.
# On the last day of culture, all cancer cells were collected and counted, and the cell concentration was adjusted to 1×10^7 cells/mL using serum free media. The cell culture solution as adjusted above was injected subcutaneously into the axillary region between the shoulder blade and the chest wall in an amount of 0.3 mL (3×10^6 cells/mouse) per BALB/C female nude mouse (5 weeks old, Nara Biotech).
# Immediately prior to administration, the compounds were dissolved in a mixture of DMAC (dimethylacetamide) 20%+Tween80 5%+20% HPbCD (2-hydroxypropyl-β-cyclodextrin) 75% at an appropriate concentration and used. The prepared substances were repeatedly administered intraperitoneally in an amount of 0.2 mL (10 mL/kg) per 20 g of a mouse according to the following administration schedule. • carrier, the compound of Example 4, the compound of Example 8, and the compound of Example 15 (25 mg/kg), 0-28 days 4.3. Confirmation of Change in Tumor Size
# After cancer cell transplantation, the tumor size of each animal subject was measured a total of 11 times in 3 directions using a vernier caliper from when the mean tumor size reached 57.0 mm^3 until Day 28, and calculated by the formula of length×width×height/2.
# In order to test the degree of toxicity upon repeated intraperitoneal administration of the Example compound to HeLa CCL2 cancer cell transplantation nude mice, general symptoms and body weight changes of the animal subjects were observed during the administration period.
# On Day 28 after drug administration, blood was collected from the mouse ophthalmic veins in 2 hours post the last administration, and the mice were killed using CO2 gas. Images of the mice were taken, and the tumor was separated and weighed on an electronic scale. After taking the images, each tumor was divided in half and fixed in liquid nitrogen and formalin, respectively. On […] after drug administration, the HeLa CCL2 tumor was excised and weighed.
# [5] = Stability in buffer (line of the metabolic stability test); assay type: in vitro ADME
# Method: as §1
# [6] = Solubility test in administration solvent; assay type: physicochemical; conditions: 2.0 mg/mL, Solvent A 20%
# Method: The test substances were accurately weighed and placed in a glass vial. Then, solvent A was added in an amount corresponding to 20% of the desired final solution volume, and the mixture was completely dissolved by treatment with a vortexer and sonication. Next, solvent B in an amount corresponding to 10% or 20% of the final solution volume was added and mixed well. […] Finally, the mixture was subjected to sonication for 30 seconds. The mixed solution was prepared and used immediately before administration in the experiment. • Solvent A: Dimethylacetamide produced by SigmaAldrich • Solvent B: Cremophor EL produced by SigmaAldrich • Solvent C: 20% HPbCD ((2-Hydroxypropyl)-β-cyclodextrin produced by SigmaAldrich) in deionized water
# [7] = 5 mg/kg, Intravenous administration, 5 mg/kg, read-out: Vss, Mean
# [8] = 5 mg/kg, Intravenous administration, 5 mg/kg, read-out: Vz, Mean
# [9] = Intravenous administration, 5 mg/kg
Compound,"F, Mean [1]","CL, Mean ([1]; Oral administration, 20 mg/kg)","Vd [1, 7]","Vd [1, 8]","AUC(0-inf) [1, 9]","AUC(0-t) [1, 9]","clearance [1, 9]","MRT inf [1, 9]","half-life [1, 9]","Cmax ([1]; Oral administration, 20 mg/kg)","Tmax ([1]; Oral administration, 20 mg/kg)","AUC(0-inf) ([1]; Oral administration, 20 mg/kg)","AUC(0-t) ([1]; Oral administration, 20 mg/kg)","MRT inf ([1]; Oral administration, 20 mg/kg)","half-life ([1]; Oral administration, 20 mg/kg)","Residue (%) after culturing for 30 min ([2]; Human, +NADPH)","Residue (%) after culturing for 30 min ([2]; Human, −NADPH)","Residue (%) after culturing for 30 min ([2]; Mouse, +NADPH)","Residue (%) after culturing for 30 min ([2]; Mouse, −NADPH)","Residue (%) after culturing for 30 min ([2]; Rat, +NADPH)",also measured
"CCOCCn1c(Cl)c(/C=N/NC(=O)c2cc3cc(C)ccc3o2)c2ccccc21 [Example 4, (E)-N′-[(2-chloro-1-(2-ethoxyethyl)-1H-indol-3-yl]methylene}-5-methylbenzofuran-2-carbohydrazide]",4.8%,1152 mL/min/kg,0.98 L/kg,1.88 L/kg,1500 ng·h/mL,1480 ng·h/mL,55.7 mL/min/kg,17.4 min,23.4 min,431 ng/mL,15 min,295 ng·h/mL,285 ng·h/mL,42 min,24 min,15.76 ± 0.89%,77.60 ± 1.39%,5.48 ± 0.04%,47.95 ± 2.93%,3.23 ± 0.55%,"Residue (%) after culturing for 30 min ([2]; Rat, −NADPH): 69.63 ± 1.94%; Residue % (180 minutes elapsed), Mean (Stability test in plasma [3]; Human plasma): 49.41%; half-life at 5 mM (Stability test in plasma [3]; Human plasma): > 180 min; Residue % (180 minutes elapsed), Mean (Stability test in plasma [3]; Mouse plasma): 60.44%; half-life at 5 mM (Stability test in plasma [3]; Mouse plasma): > 180 min; IC50 (HeLa cells): 180 nM; half-life at 5 mM (Stability test in plasma [4]): > 180 min; Residue % (180 minutes elapsed), Mean (Stability test in plasma [4]): 67.11%; tumor growth inhibition (HeLa CCL2 tumor): 56.71%; reduction in tumor weight compared with solvent control (HeLa CCL2 tumor): 57.1%; Residue (%) after culturing for 30 min [5]: 100.93 ± 11.79%; Solubility evaluation result ([6]; Solvent B 10%, Solvent C 70% (dimethylacetamide/Cremophor EL/20% HPbCD)): Soluble"
"CCOCCn1c(Cl)c(/C=N/NC(=O)c2cc3cc(C)ccc3o2)c2cc(OC)ccc21 [Example 8, (E)-N′-[(2-chloro-1-(2-ethoxyethyl)-5-methoxy-1H-indol-3-yl]methylene}-5-methylbenzofuran-2-carbohydrazide]",1.0%,3265.3 mL/min/kg,0.5 L/kg,0.85 L/kg,2390 ng·h/mL,2380 ng·h/mL,35 mL/min/kg,14.4 min,16.8 min,93.9 ng/mL,34.8 min,103 ng·h/mL,96.3 ng·h/mL,54 min,24 min,24.11 ± 0.46%,99.18 ± 1.92%,11.41 ± 2.47%,89.93 ± 6.72%,4.55 ± 0.94%,"Residue (%) after culturing for 30 min ([2]; Rat, −NADPH): 85.58 ± 3.34%; Residue % (180 minutes elapsed), Mean (Stability test in plasma [3]; Human plasma): 26.05%; half-life at 5 mM (Stability test in plasma [3]; Human plasma): > 180 min; Residue % (180 minutes elapsed), Mean (Stability test in plasma [3]; Mouse plasma): 74.16%; half-life at 5 mM (Stability test in plasma [3]; Mouse plasma): > 180 min; IC50 (HeLa cells): 82 nM; half-life at 5 mM (Stability test in plasma [4]): > 180 min; Residue % (180 minutes elapsed), Mean (Stability test in plasma [4]): 49.25%; tumor growth inhibition (HeLa CCL2 tumor): 38.35%; reduction in tumor weight compared with solvent control (HeLa CCL2 tumor): 40.5%; Residue (%) after culturing for 30 min [5]: 98.98 ± 2.07%; Solubility evaluation result ([6]; Solvent B 20%, Solvent C 60% (dimethylacetamide/Cremophor EL/20% HPbCD)): Soluble"
